Converted amounts (≈) assume the structure as drawn. “And” between values parts separate entries of the source, which are not always exact repeats. Equal values may be shown once.
Columns and labels:
[1] = system: non-smoker volunteers; test: Non-smoker control volunteers on same regimen; assay type: in vivo, human (non-smokers); conditions: five non-smokers; in excess of 500 mg per day for several days
Protocol: As a control, five non-smoker volunteers were tested according to the same regimen, receiving varying quantities of ethyl maltol in excess of 500 mg. per day for periods of several days.

[2] = system: hexobarbital-induced sleeping time; conditions: 300 to 500 mg per kg; cited from earlier work
[3] = system: rat brain cortex slices; conditions: in vitro; cited from earlier work
[4] = Solubility; assay type: physicochemical
Protocol: The troches were made essentially by conventional candy making techniques. The polysaccharide and starch were first dry blended to substantial uniformity. About 3-4% by weight of water was added to the dry powder to form a thick paste. This paste was then heated to produce a uniform viscous melt. Maltol or ethyl maltol were added to this melt as saturated solutions in boiling water. The water solubility of the gamma pyrones is somewhat limited. For example, one gram of ethyl maltol requires 6 ml of water at 100° C. to dissolve completely. Since the water content of the mixture must be kept low, the amount of ethyl maltol which can be incorporated is about 3-4%, and preferably about 1% by weight of the troche. […] Alternatively, the entire process can be carried out in a suitable pressure apparatus.

[5] = Dissolution in the mouth of gamma pyrone particles dispersed in chewing gum; assay type: physicochemical; conditions: particles 300 to 400 mesh
Protocol: The formation of a chewing gum for administering a gamma pyrone according to the invention is next described. Crystaline ethyl maltol was ground and sieved to 300 mesh. The ground particles acquired a static charge, tending to float upwards. In practice, it was possible to sieve the particles upwards, collecting only those which passed through the 300 mesh screen.
The ground particles were mixed at 45° C. with a plastic chewing gum base, until evenly distributed throughout the mass. The chewing gum base was selected to be free of amino acids, tannins and other flavoring elements capable of combining with gamma pyrone to yield bitter off flavors. The rate of release of gamma pyrone into the oral cavity is a function of the rate of solution of the gamma pyrone as the gum is chewed. The rate of solution is controlled by the size of the gamma pyrone particles dispersed in the gum. Optimally, for ethyl maltol, particles in the size range from 300 to 400 mesh when dispersed in such a matrix, are dissolved in the mouth in about 30 minutes. The gamma pyrone must be dispersed throughout the gum in particulate form to provide the desired sustained release effect, particles […] than 300-400 mesh dissolved more slowly, so that the incremental dose was delivered more slowly. […] particles dissolved more rapidly than desired so that the dose was delivered in an undesirably short time. […]

[6] = system: spontaneous motor activity; conditions: mice; relative to maltol; cited from earlier work
[7] = system: smoking level of smokers; test: Daily rates of smoking reduction (Example 5, Table II; comparison with placebo groups of Example 6); assay type: in vivo, human (volunteer smokers); conditions: for reduction in smoking level: 1,000 mg/day, eight slowly dissolving lozenges, individual subjects
Protocol: Subjects who participated had prior knowledge of the purported effect of the treatment. They were asked to test a new dosage form and told that a "cure" was not necessarily to be expected in this test. The dosage was 1,000 mg/day of ethyl maltol divided over eight pieces of slowly dissolving lozenges, made essentially as described supra. Subjects administered their own dosage without supervision. The tests were designed and supervised by the inventor but carried out by intermediaries, in order to maximize the opportunity for objective evaluation of symptoms, and to minimize any possibility of investigative bias influencing the results. (True double blind tests are impossible because the gamma pyrone flavor is distinctive and virtually impossible to mask). Subjects were all in generally good health, and were selected to represent a variety of ages, occupational stresses, and personal life styles.
Levels of tobacco consumption were calculated taking into account the number of cigarettes smoked and the proportions smoked. They are expressed as percent reduction from the pretest smoking level.
During the same time period that the studies in Example Five were conducted, two groups of smokers were administered a placebo dosage comprising the same basic candy lozenge, but lacking any gamma pyrone and containing ascorbic and citric acids to impart a sharp, medicinal flavor.
This conclusion is further substantiated by analysis of variance. For such analysis, individual tests that were either incomplete or which presented unusual circumstances were discarded. Results from placebo groups one and two were pooled. The average percent reduction in smoking is plotted in FIG. 1, for the treatment and the placebo groups.

[8] = cited from earlier work
[9] = system: smoking habit of smokers; test: Single dose response in smokers (Example 3); assay type: in vivo, human (volunteer smokers)
Protocol: The effect of a single dose of ethyl maltol in the range from 100 mg to 1,200 mg was tested on thirty volunteer subjects who were smokers. As a control, an additional ten smokers were given an inert placebo, a similar candy or gum laced with ascorbic acid and citric acid to impart a medicinal flavor. […] The threshold of effectiveness varied with the individual's age, sex, weight, smoking history, and habits. […] These studies established the existence of a critical threshold dose level below which the effectiveness of ethyl maltol as a tobacco smoking inhibitor was not observed. In subsequent tests where the gamma pyrone was administered in a dose series extending over several days, daily doses of less than about 300 mg per day were similarly ineffective.

[10] = system: mice; conditions: cited from earlier work

## CCc1occc(=O)c1O [ethyl maltol, 3-hydroxy-2-ethyl-4-pyrone]
[1]
  psychological or physiological effects: no psychological or physiological effects
[2]
  hexobarbital-induced sleeping time: potentiating hexobarbital-induced sleeping time
[3]
  oxygen intake by rat brain cortex slices: not affected
[4]; compared with water
  solubility in alcoholic solution: somewhat more soluble
[4]; one gram, water at 100° C., read-out: water to dissolve one gram completely (converted)
  solubility: 167 mg/mL (≈ 1190 mM)
[5]
  dissolution time in the mouth from gum: about 30 minutes
[6]
  spontaneous motor activity (in words): also inhibitory, but somewhat less potent
[7]; Day 1
  reduction in smoking level: 10%
[7]; Day 2
  reduction in smoking level: 5% and 15% and 10% and 30% and 20%
[7]; Day 3
  reduction in smoking level: 10% and 20% and 5% and 40% and 60% and 30% and 15% and 45%
[7]; Day 4
  reduction in smoking level: 40% and 50% and 10% and 65% and 5% and 75% and 70% and 30%
[7]; Day 5
  reduction in smoking level: 30% and 80% and 10% and 85% and 60% and 90% and 50% and 35% and 95%
[7]; Day 6
  reduction in smoking level: 60% and 95% and 20% and 15% and 50% and 70% and 25%
[7]; Day 7
  reduction in smoking level: 50% and 40% and 20% and 90% and 65% and 85% and 30% and 45%
[7]; Day 8
  reduction in smoking level: 70% and 55% and 40% and 75% and 15% and 90% and 50%
[7]; Day 9
  reduction in smoking level: 80% and 70% and 20% and 65% and 95% and 90%
[7]; Day 10
  reduction in smoking level: 85% and 90% and 30% and 70% and 80%
[7]; subject 10, after day 5, "beer tasted funny"
  discontinuation: Discontinued
[8]; after oral administration
  absorption: rapidly absorbed
  excretion: rapidly excreted
  form of excretion: primarily as glucuronide and ethereal sulfate conjugates
[8]; in vivo
  metabolism and excretion: rapidly metabolized and excreted
[9]; chewing gum over ten to fifteen minutes versus tablet
  threshold dose, chewing gum versus tablet: somewhat lower
[9]; single dose greater than 300 mg
  reaction to cigarettes: immediate overt negative reaction to cigarettes
[9]; single dose greater than 500 mg
  duration of substantially reduced level of smoking: a few hours to two days
[9]; single dose greater than 500 mg, substantially all individuals
  desire to smoke cigarettes: a definitive result of reduced desire to smoke cigarettes
[9]; single dose greater than 1,200 mg
  effect of dose greater than 1,200 mg: no addition advantage
[9]; single dose of less than 300 mg
  effect on smoking: no definitive effect
[9]; single dose up to about 1,200 mg
  effect of increasing dose: Increased effectiveness
[9]; single dose, some subjects
  physiological symptoms of nicotine withdrawal: For some subjects, physiological symptoms of nicotine withdrawal were noted
[10]
  acute LD50: 910 mg per kg

— patent US4276890A, “Tobacco smoking inhibitor” (priority 1979, dated 1981)
